# Legend:
# [1] = system: rOmpU fusion protein adhesion to EPC cells; assay: Fluorescence-based adhesion assay: rOmpU protein adhesion to EPC cells; type: cell-based, Vibrio mimicus; conditions: 500 μg/mL peptide mixed with equal volume of 500 μg/mL rOmpU, 1 h 28°C, then 1 h on fixed EPC cells; anti-OmpU/FITC immunofluorescence; triplicate
# Method: Synthetic OmpU-binding peptides were measure for their ability to antagonize OmpU protein adhesion to EPC cells by fluorescence-based adhesion assay. Briefly, EPC cells (1 × 10^6 cells/mL) were seeded in 24-well cell plate containing coverslip (Corning, NY, USA) and cultured to 80% confluence. The cells were gently washed 3 times with PBS and fixed with 4% paraformaldehyde at room temperature for 15 min. After 3 washes with PBS, cells were permeabilized with 0.5% Triton X-100 (500 μL/well) for 15 min. The cells were then washed 3 times with PBS and blocked with 2% BSA for 30 min. Subsequently, 500 μg/mL of each OmpU-binding peptide or irrelevant control peptide (used as negative control) solution were respectively mixed with an equal volume of 500 μg/mL rOmpU fusion protein, and the mixture was incubated for 1 h at 28°C and added to each well. The plates were incubated for 1 h at 28°C. After 3 washes, purified rabbit anti-OmpU antibody (prepared in our previous studies) at a dilution of 1:200 in PBS was added to each well and incubated for 1 h at 28°C, followed by 3 washes in PBS. A 1:100 dilution of FITC (fluorescein isothiocyanate)-labeled goat anti-rabbit IgG (Jackson ImmunoResearch Laboratories, Inc., USA) was added to each well and incubated in the dark for 1 h. After 3 washes in PBS, 4,6-Diamidino-2-phenylindole dihydrochloride (DAPI; Ziyi Reagent Co., Shanghai, China) was used to stain the nucleus, and the coverslips were observed under a fluorescence microscope. Each experiment was performed in triplicate, each sample being tested in three wells.
# [2] = system: V. mimicus 04–14 isolate adhesion to EPC cells; assay: Peptide adhesion inhibition test: V. mimicus adhesion to EPC cells; type: cell-based, Vibrio mimicus; conditions: 500 μg/mL peptide mixed with equal volume of V. mimicus 04–14 (2 × 10^7 CFU/mL), 1 h 28°C, then 1 h on EPC cells, crystal violet, 30 cells counted, mean ± SD, triplicate
# Method: When EPC cells grown in 24-well plate containing coverslips formed a confluent monolayer, the medium was changed to RPMI-1640 medium without serum and antibiotics for 2 h. Subsequently, 500 μg/mL of each OmpU-binding peptide or unrelated control peptide solution were respectively mixed with an equal volume of V. mimicus isolate 04–14 suspension (2 × 10^7 CFU/mL) and incubated for 1 h at 28°C. The mixture was added to each well, and then the plates were incubated for 1 h at 28°C. After 3 times washes, EPC cells were fixed with cooled methanol for 10 min, stained with crystal violet and examined under a light microscope at a magnification of ×1,000. Thirty cells were randomly selected to count the number of adhering bacterial per slide. Each experiment was performed in triplicate, with each sample being repeated in 3 cell wells.
sequence,measurement,setting,value
TGYICDEMFCKL [P3],green fluorescence on the surface of EPC cells (surface-retained rOmpU),[1],Obvious green fluorescence
same,average number of adhesion around each cell,[2],20.2 ± 0.5

# — publication PMC5104426, “Screening a Phage Display Library for Two Novel OmpU-Binding Peptides with Adhesion Antagonistic Activity against Vibrio mimicus” (PLoS ONE, 2016)
